Test results published in the NIST ThermoML archive (doi:10.1016/j.jct.2004.05.001).
Numbers after ± are expanded uncertainties.

details: 298.15 K; 101.33 kPa; Liquid

Row | SMILES | mass density [kg/m3]
1 | CCCCCCCCCCCC [dodecane] | 747 ± 4
2 | CCCCCCCCCCCCCCCC [hexadecane] | 771.5 ± 1.4
3 | c1ccccc1 [benzene] | 873.2 ± 0.9
4 | CCCCCCC [heptane] | 690.6 ± 1.6
5 | CCCCCCn1cc[n+](C)c1.F[B-](F)(F)F [1-hexyl-3-methylimidazolium tetrafluoroborate] | 1148.1 ± 5
6 | CCCCCCn1cc[n+](C)c1.F[P-](F)(F)(F)(F)F [1-hexyl-3-methylimidazolium hexafluorophosphate] | 1293.5 ± 7
